Test results: article PMC3302934 (Journal of Acquired Immune Deficiency Syndromes (1999), 2012)

Columns and labels:
[1] = Rapamycin trough blood concentrations; format: in vivo, human
Kaposi sarcoma [2] = assay: Clinical response of KS to rapamycin; format: in vivo, human
HIV [3] = assay: HIV viral load monitoring; format: in vivo, human; details: during rapamycin treatment with ART
CD4 T-lymphocyte counts = assay: CD4+ T-lymphocyte count monitoring; format: in vivo, human; details: 6 study participants with follow-up tests; median baseline 826
KSHV = KSHV plasma viral load by quantitative real-time PCR; format: in vivo, human
interleukin-6 (IL6) = assay: Plasma IL6 by ELISA; format: in vivo, human; details: baseline median 8.22pg/ml
[4] = system: vascular endothelial growth factor (VEGF); assay: Plasma VEGF by ELISA; format: in vivo, human
phospho-RPS6 (pRPS6) = assay: IHC of KS biopsies for phospho-RPS6; format: in vivo, human
[5] = system: phospho-Akt (Ser473) and phospho-Akt (T308); assay: IHC of KS biopsies for phospho-Akt; format: in vivo, human; details: KS biopsies on treatment vs baseline
Ki-67 = assay: IHC of KS biopsies for Ki-67; format: in vivo, human; details: KS biopsies on treatment vs baseline
[6] = system: KSHV latency associated nuclear antigen (LANA); assay: IHC of KS biopsies for KSHV LANA; format: in vivo, human; details: KS biopsies on treatment vs baseline
Kaposi sarcoma [7] = details: HIV-uninfected renal allograft recipients; trough 6-10ng/ml; cited from earlier work
P-glycoprotein = details: cited from earlier work
HIV [8] = details: in culture; cited from earlier work
[9] = system: cytochrome P450 3A4 (CYP3A4); details: cited from earlier work
[10] = Safety and adverse event monitoring

CO[C@H]1C[C@@H]2CC[C@@H](C)[C@@](O)(O2)C(=O)C(=O)N2CCCC[C@H]2C(=O)O[C@H]([C@H](C)C[C@@H]2CC[C@@H](O)[C@H](OC)C2)CC(=O)[C@H](C)/C=C(\C)[C@@H](O)[C@@H](OC)C(=O)[C@H](C)C[C@H](C)/C=C/C=C/C=C/1C [rapamycin]
time for blood levels to decline to acceptable levels after stopping rapamycin ([1]; first patient, ritonavir-boosted lopinavir regimen, from 172ng/mL): three
concentration at 7 days ([1]; human, whole blood, oral, 2 mg): 123 ng/mL
concentration at 14 days ([1]; human, whole blood, oral, 2 mg): 172 ng/mL
Maximum Rapamycin Trough Level by LCMSMS ([1]; patient 001, Lopinavir/r ART, initial 2 mg daily): 172 ng/mL
Maximum Rapamycin Trough Level by LCMSMS ([1]; patient 002, Atazanavir/r ART, initial 0.3 mg biw): 64.4 ng/mL
Maximum Rapamycin Trough Level by LCMSMS ([1]; patient 003, Atazanavir/r ART, initial 0.3 mg biw): 16.8 ng/mL
Maximum Rapamycin Trough Level by LCMSMS ([1]; patient 004, Nevirapine ART, initial 4.9 mg daily): 13.1 ng/mL
Maximum Rapamycin Trough Level by LCMSMS ([1]; patient 005, Lopinavir/r ART, initial 0.4 mg biw): 19.2 ng/mL
Maximum Rapamycin Trough Level by LCMSMS ([1]; patient 006, Efavirenz ART, initial 4.5 mg daily): 7.4 ng/mL
Maximum Rapamycin Trough Level by LCMSMS ([1]; patient 007, Efavirenz ART, initial 3.7 mg daily): 11.9 ng/mL
number of patients with stable disease as best response (Kaposi sarcoma [2]; of seven): Three
number of patients with partial KS response (Kaposi sarcoma [2]; of seven, all receiving PI/r regimens): Three
Best Response of KS to Rapamycin (Kaposi sarcoma [2]; patient 001, Lopinavir/r ART, maintenance 0.2 mg biw): Partial
Best Response of KS to Rapamycin (Kaposi sarcoma [2]; patient 002, Atazanavir/r ART, maintenance 0.2 mg biw): Partial
Best Response of KS to Rapamycin (Kaposi sarcoma [2]; patient 003, Atazanavir/r ART, maintenance 0.3 mg tiw): Stable
Best Response of KS to Rapamycin (Kaposi sarcoma [2]; patient 004, Nevirapine ART, maintenance 2.8 mg daily): Progression
Best Response of KS to Rapamycin (Kaposi sarcoma [2]; patient 005, Lopinavir/r ART, maintenance 0.1 mg biw): Partial
Best Response of KS to Rapamycin (Kaposi sarcoma [2]; patient 006, Efavirenz ART, maintenance 6.7 mg daily): Stable
Best Response of KS to Rapamycin (Kaposi sarcoma [2]; patient 007, Efavirenz ART, maintenance 2.3 mg daily): Stable
response duration (Kaposi sarcoma [2]; three responding patients): 43 to 50 weeks
time to partial KS response (Kaposi sarcoma [2]; three responding patients): 3 to 9 weeks
changes in HIV VL (HIV [3]): no consistent changes
CD4 counts during treatment (CD4 T-lymphocyte counts): > 400 cells/μL
changes in KSHV VL during rapamycin treatment (KSHV): no significant changes
median change in KSHV VL during treatment (KSHV; baseline median 214, P=0.156): -138.8 copies/ml
changes in plasma IL6 concentrations during treatment (interleukin-6 (IL6)): No significant changes
changes in plasma VEGF concentrations during treatment [4]: No significant changes
overall changes from baseline in staining scores (pRPS6, phospho-Akt) (phospho-RPS6 (pRPS6); on-treatment KS biopsies, all patients, score 0 to 4): no significant changes
pRPS6 reactivity within KS tumor cells and overlying epithelium (phospho-RPS6 (pRPS6); subject #5, after 50 days on drug vs baseline): decreased pRPS6 reactivity
pRPS6 staining compared to baseline (phospho-RPS6 (pRPS6); three of four subjects biopsied at day 50 or later, all on PI/r-based ART): decreased pRPS6 staining
changes in Akt phosphorylation at T308 or Ser473 [5]: no significant changes
changes in Ki-67 staining (Ki-67): no significant changes
changes in LANA staining [6]: no significant changes
KS outcome after change from cyclosporin A-based regimen to rapamycin (Kaposi sarcoma [7]): KS regressed
substrate status for P-glycoprotein (P-glycoprotein): substrate
effect on HIV infectivity and transcription (HIV [8]): inhibits HIV infectivity and transcription in culture
substrate status for CYP3A4 [9]: substrate
grade of most adverse events ([10]; all seven patients experienced adverse events): most were grade 1
serious adverse event ([10]; patient #4, Nevirapine ART): extensive grade 3 superficial vein thrombus requiring anticoagulation, considered possibly related to rapamycin
infectious adverse events ([10]; patient #5, pneumonia and dermatomal Herpes zoster): 2 separate grade 2 infectious episodes without neutropenia
infectious adverse events ([10]; patient #6, without neutropenia, resolved without treatment): grade 2 upper respiratory infection
overall tolerability ([10]; seven HIV-infected KS patients on ART, trough target 5-10 ng/mL): generally well tolerated
